In patent US9199962B2, “Substituted azaheterocycles for the treatment of cancer” (Merck Patent GmbH, priority 2011, dated 2015):
pIC50: −log10 of the molar value. Where two headings read alike, the source gives them in different places.

How the values were obtained:
[1] = biological target: T1, GST-FAK (N-terminal GST fusion with truncated human FAK (376-1052 (end) amino acids)) (Homo sapiens, UniProt Q05397); assay: Biochemical enzyme assay for FAK activity (Caliper LC3000 mobility shift); conditions: 100 uM ATP, read-out: FAK IC50
T1 construct: truncated human FAK (376-1052 (end) amino acids)
T1 sequence (Q05397 376-1052): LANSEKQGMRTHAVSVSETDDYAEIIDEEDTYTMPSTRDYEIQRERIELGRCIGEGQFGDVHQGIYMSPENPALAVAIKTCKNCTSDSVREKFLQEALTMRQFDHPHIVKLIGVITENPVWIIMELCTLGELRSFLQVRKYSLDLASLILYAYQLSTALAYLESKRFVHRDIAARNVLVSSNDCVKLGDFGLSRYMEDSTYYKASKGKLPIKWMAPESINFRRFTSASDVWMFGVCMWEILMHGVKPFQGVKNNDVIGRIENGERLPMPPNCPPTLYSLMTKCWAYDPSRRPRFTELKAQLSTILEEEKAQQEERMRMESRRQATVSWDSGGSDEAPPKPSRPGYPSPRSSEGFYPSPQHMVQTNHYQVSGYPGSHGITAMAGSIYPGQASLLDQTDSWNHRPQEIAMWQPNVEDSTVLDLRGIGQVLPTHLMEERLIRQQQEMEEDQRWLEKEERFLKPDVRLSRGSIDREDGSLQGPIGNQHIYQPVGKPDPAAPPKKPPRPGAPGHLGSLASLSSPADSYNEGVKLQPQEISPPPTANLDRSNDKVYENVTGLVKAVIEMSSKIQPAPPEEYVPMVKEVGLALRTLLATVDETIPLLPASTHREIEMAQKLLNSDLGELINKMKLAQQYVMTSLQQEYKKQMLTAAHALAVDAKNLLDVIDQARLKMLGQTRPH
Method in brief: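 Inhibitor dose series in DMSO were incubated 90 min at 25 °C with truncated GST-tagged human FAK (0.067 ng/µl) and FITC-labelled peptide substrate (1 µM), with ATP at 100 µM and FERM peptide at 1 mM (pH 7.5 HEPES). After EDTA quench, phosphorylated and unphosphorylated peptides were resolved electrophoretically. Percent conversion was fitted for IC50.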

[2] = biological target: T2, focal adhesion kinase (FAK) autophosphorylation at tyrosine 397 in HT29 cells (Homo sapiens, UniProt Q05397); assay: Cellular testing of FAK inhibitors: FAK autophosphorylation at tyrosine 397 in HT29 cells (Luminex-based assay); type: cell-based; conditions: 30 min serum-free, read-out: HT-29 IC50
T2 construct: endogenous in cells; host or cells: HT29
T2 sequence (Q05397 whole entry): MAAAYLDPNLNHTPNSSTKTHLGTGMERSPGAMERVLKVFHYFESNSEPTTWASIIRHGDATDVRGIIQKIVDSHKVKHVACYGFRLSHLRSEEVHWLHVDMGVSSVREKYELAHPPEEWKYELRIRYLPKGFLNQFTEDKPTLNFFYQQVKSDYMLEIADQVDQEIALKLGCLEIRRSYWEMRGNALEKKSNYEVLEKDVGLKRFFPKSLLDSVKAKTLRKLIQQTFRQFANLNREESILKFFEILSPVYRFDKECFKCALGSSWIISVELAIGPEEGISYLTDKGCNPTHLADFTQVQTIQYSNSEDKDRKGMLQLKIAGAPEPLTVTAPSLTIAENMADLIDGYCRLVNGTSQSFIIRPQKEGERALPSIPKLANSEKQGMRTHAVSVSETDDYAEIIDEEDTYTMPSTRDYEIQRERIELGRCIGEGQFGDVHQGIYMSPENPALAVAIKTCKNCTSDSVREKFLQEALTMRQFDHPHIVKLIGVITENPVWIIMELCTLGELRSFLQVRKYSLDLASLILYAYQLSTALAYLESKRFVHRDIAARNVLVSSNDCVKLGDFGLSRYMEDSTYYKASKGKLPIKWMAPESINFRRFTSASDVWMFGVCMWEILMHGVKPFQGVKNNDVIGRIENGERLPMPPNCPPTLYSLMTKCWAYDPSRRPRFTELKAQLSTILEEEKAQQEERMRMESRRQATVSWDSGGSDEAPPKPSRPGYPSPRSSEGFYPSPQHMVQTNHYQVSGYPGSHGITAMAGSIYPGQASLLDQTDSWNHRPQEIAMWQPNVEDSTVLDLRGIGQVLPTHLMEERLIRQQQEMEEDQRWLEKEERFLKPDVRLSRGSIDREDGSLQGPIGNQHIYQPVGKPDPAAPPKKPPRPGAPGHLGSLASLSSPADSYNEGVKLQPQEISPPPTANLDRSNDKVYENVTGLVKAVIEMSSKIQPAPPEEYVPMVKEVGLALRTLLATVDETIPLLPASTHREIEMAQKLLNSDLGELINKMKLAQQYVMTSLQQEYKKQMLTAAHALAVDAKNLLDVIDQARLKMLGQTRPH
Protocol: 2. Assay Principle for Celluar Testing of FAK Inhibitors
Cellular activity of focal adhesion kinase (FAK) is determined by the degree of FAK autophosphorylation at tyrosine 397 using a Luminex-based assay. HT29 cells are plated with 30,000 cells per well of a 96-well plate in 100 μl medium (90% DMEM/10% FCS). At the following day, test compounds are added in a serial dilution under serum-free conditions for 30 min. Then, cells were lysed with 90 μl lysis buffer (20 mM Tris/HCl pH 8.0, 150 mM NaCl, 1% NP40, 10% Glycerol, 1% Phosphatase-Inhibitor II, 20 mM […]-Glycerolphosphat, 0.1% Protease-Inhibitor Cocktail III, 0.01% Benzonase) and lysates were cleared by centrifugation through a 96-well filter plate (0.65 μm). Samples were incubated with Luminex-beads which were coupled with an anti-total FAK antibody overnight at 4° C. with under gentle agitation. For detection of phospho-Y397-FAK a phosphospecific antibody and a species specific PE-labeled secondary antibody are added. The amount of phospho-Y397-FAK is determined in a Luminex100 machine measuring 100 events per well within 60 seconds.
Counts from samples treated with a FAK reference inhibitor are subtracted as pharmacological blank. Counts from samples treated with test compounds are calculated as percent of control from solvent treated (0.3% DMSO) samples. IC50 values were determined using AssayExplorer software.

Question: How did the pIC50 ([1]; Table 2) turn out when `CN1CCC(NC(=O)c2cc(NCc3ccc(F)cc3F)nc(-c3cncc(C(F)(F)F)c3)n2)CC1` [Compound 54, 6-(2,4-Difluoro-benzylamino)-2-(5-trifluoromethyl-pyridin-3-yl)-pyrimidine-4-carboxylic acid (1-methyl-piperidin-4-yl)-amide] was run?
Answer: > 7.00

Question: And the pIC50 ([2]; Table 2, phospho-Y397-FAK)?
Answer: 5.00 to 6.00

Question: How did the pIC50 ([1]; Table 2) turn out when `NC(=O)C1CCCN(c2cc(NCc3ccc(F)cc3F)nc(-c3cncc(C(F)(F)F)c3)n2)C1` (stereo not drawn) [Compound 55, 1-[6-(2,4-Difluoro-benzylamino)-2-(5-trifluoromethyl-pyridin-3-yl)-pyrimidin-4-yl]-piperidine-3-carboxylic acid amide] was run?
Answer: 6.00 to 7.00

Question: And the pIC50 ([2]; Table 2, phospho-Y397-FAK)?
Answer: 5.00 to 6.00

Question: Which results are given for `Fc1ccc(CNc2cc(NCCCn3ccnc3)nc(-c3cncc(C(F)(F)F)c3)n2)c(F)c1` [Compound 56, N-(2,4-Difluoro-benzyl)-N′-(3-imidazol-1-yl-propyl)-2-(5-trifluoromethyl-pyridin-3-yl)-pyrimidine-4,6-diamine]?
Answer: pIC50 ([1]; Table 2): 6.00 to 7.00; pIC50 ([2]; Table 2, phospho-Y397-FAK): 5.00 to 6.00

Question: What does the source list for `O=C1CCCN1CCCNc1cc(NCc2ccc(F)cc2F)nc(-c2cncc(C(F)(F)F)c2)n1` [Compound 57, 1-{3-[6-(2,4-Difluoro-benzylamino)-2-(5-trifluoromethyl-pyridin-3-yl)-pyrimidin-4-ylamino]-propyl}-pyrrolidin-2-one]?
Answer: pIC50 ([1]; Table 2): 6.00 to 7.00; pIC50 ([2]; Table 2, phospho-Y397-FAK): 5.00 to 6.00

Question: Which results are given for `Fc1ccc(CNc2cc(NCCCN3CCOCC3)nc(-c3cncc(C(F)(F)F)c3)n2)c(F)c1` [Compound 58, N-(2,4-Difluoro-benzyl)-N′-(3-morpholin-4-yl-propyl)-2-(5-trifluoromethyl-pyridin-3-yl)-pyrimidine-4,6-diamine]?
Answer: pIC50 ([1]; Table 2): > 7.00; pIC50 ([2]; Table 2, phospho-Y397-FAK): 5.00 to 6.00

Question: With `NC(=O)C1CCN(c2cc(NCc3ccc(F)cc3F)nc(-c3cncc(C(F)(F)F)c3)n2)CC1` [Compound 59, 1-[6-(2,4-Difluoro-benzylamino)-2-(5-trifluoromethyl-pyridin-3-yl)-pyrimidin-4-yl]-piperidine-4-carboxylic acid amide] as the compound, how does the pIC50 ([1]; Table 2) read?
Answer: 6.00 to 7.00

Question: What about the pIC50 ([2]; Table 2, phospho-Y397-FAK) of the same compound?
Answer: 5.00 to 6.00

Question: `CN(C)CCCNc1cc(NCc2ccc(F)cc2F)nc(-c2cncc(C(F)(F)F)c2)n1` [Compound 60, N-(2,4-Difluoro-benzyl)-N′-(3-dimethylamino-propyl)-2-(5-trifluoromethyl-pyridin-3-yl)-pyrimidine-4,6-diamine] was tested. Which pIC50 ([1]; Table 2) did it give?
Answer: > 7.00

Question: What about the pIC50 ([2]; Table 2, phospho-Y397-FAK) of the same compound?
Answer: 5.00 to 6.00

Question: How did the pIC50 ([1]; Table 2) turn out when `CCN(CC)C(=O)CCNc1cc(NCc2ccc(F)cc2F)nc(-c2cncc(C(F)(F)F)c2)n1` [Compound 62, 3-[6-(2,4-Difluoro-benzylamino)-2-(5-trifluoromethyl-pyridin-3-yl)-pyrimidin-4-ylamino]-N,N-diethyl-propionamide] was run?
Answer: 6.00 to 7.00

Question: And the pIC50 ([2]; Table 2, phospho-Y397-FAK)?
Answer: 5.00 to 6.00

Question: How did the pIC50 ([1]; Table 2) turn out when `O=C(CCNc1cc(NCc2ccc(F)cc2F)nc(-c2cncc(C(F)(F)F)c2)n1)N1CCOCC1` [Compound 63, 3-[6-(2,4-Difluoro-benzylamino)-2-(5-trifluoromethyl-pyridin-3-yl)-pyrimidin-4-ylamino]-1-morpholin-4-yl-propan-1-one] was run?
Answer: 6.00 to 7.00

Question: What about the pIC50 ([2]; Table 2, phospho-Y397-FAK) of the same compound?
Answer: 5.00 to 6.00

Question: With `CN1CCN(C(=O)CCNc2cc(NCc3ccc(F)cc3F)nc(-c3cncc(C(F)(F)F)c3)n2)CC1` [Compound 64, 3-[6-(2,4-Difluoro-benzylamino)-2-(5-trifluoromethyl-pyridin-3-yl)-pyrimidin-4-ylamino]-1-(4-methyl-piperazin-1-yl)-propan-1-one] as the compound, how does the pIC50 ([1]; Table 2) read?
Answer: 6.00 to 7.00

Question: And the pIC50 ([2]; Table 2, phospho-Y397-FAK)?
Answer: 5.00 to 6.00

Question: What does the source list for `CN(C)CCCCNc1cc(NCc2ccc(F)cc2F)nc(-c2cncc(C(F)(F)F)c2)n1` [Compound 65, N-(2,4-Difluoro-benzyl)-N′-(4-dimethylamino-butyl)-2-(5-trifluoromethyl-pyridin-3-yl)-pyrimidine-4,6-diamine]?
Answer: pIC50 ([1]; Table 2): 6.00 to 7.00; pIC50 ([2]; Table 2, phospho-Y397-FAK): < 5.00

Question: With `NC(=O)CNC(=O)c1cc(NCc2ccc(F)cc2F)nc(-c2cncc(C(F)(F)F)c2)n1` [Compound 72, 6-(2,4-Difluoro-benzylamino)-2-(5-trifluoromethyl-pyridin-3-yl)-pyrimidine-4-carboxylic acid carbamoylmethyl-amide] as the compound, how does the pIC50 ([1]; Table 2) read?
Answer: > 7.00

Question: And the pIC50 ([2]; Table 2, phospho-Y397-FAK)?
Answer: 6.00 to 7.00

Question: How did the pIC50 ([1]; Table 3) turn out when `Nc1ncccc1-c1nccc(NCc2ccccc2C(F)(F)F)n1` [Compound 77, 2-(2-Aminopyridin-3-yl)-N-[2-(trifluoromethyl)benzyl]pyrimidin-4-amine] was run?
Answer: 6.00 to 7.00

Question: What about the pIC50 ([2]; Table 3, phospho-Y397-FAK) of the same compound?
Answer: < 5.00

Question: `FC(F)(F)c1ccccc1CNc1ccnc(-c2cccnc2)n1` [Compound 89, 2-Pyridin-3-yl-N-[2-(trifluoromethyl)benzyl]pyrimidin-4-amine] was tested. Which pIC50 ([1]; Table 3) did it give?
Answer: 6.00 to 7.00

Question: And the pIC50 ([2]; Table 3, phospho-Y397-FAK)?
Answer: < 5.00

Question: Which results are given for `Nc1ncccc1-c1nccc(NCc2ccc(F)cc2F)n1` [Compound 98, 2-(2-Aminopyridin-3-yl)-N-(2,4-difluorobenzyl)pyrimidin-4-amine]?
Answer: pIC50 ([1]; Table 3): 6.00 to 7.00; pIC50 ([2]; Table 3, phospho-Y397-FAK): < 5.00

Question: How did the pIC50 ([1]; Table 3) turn out when `Fc1cncc(-c2nccc(NCc3ccccc3C(F)(F)F)n2)c1` [Compound 107, 2-(5-Fluoropyridin-3-yl)-N-[2-(trifluoromethyl)benzyl]pyrimidin-4-amine] was run?
Answer: 6.00 to 7.00

Question: And the pIC50 ([2]; Table 3, phospho-Y397-FAK)?
Answer: < 5.00

Question: What does the source list for `FC(F)(F)c1ccccc1CNc1ccnc(-c2cncc(Cl)c2)n1` [Compound 108, 2-(5-Chloropyridin-3-yl)-N-[2-(trifluoromethyl)benzyl]pyrimidin-4-amine]?
Answer: pIC50 ([1]; Table 3): > 7.00; pIC50 ([2]; Table 3, phospho-Y397-FAK): 5.00 to 6.00

Question: With `Nc1ncccc1-c1nccc(NCc2ccc(F)cc2C(F)(F)F)n1` [Compound 110, 2-(2-Aminopyridin-3-yl)-N-[4-fluoro-2-(trifluoromethyl)benzyl]pyrimidin-4-amine] as the compound, how does the pIC50 ([1]; Table 3) read?
Answer: > 7.00

Question: And the pIC50 ([2]; Table 3, phospho-Y397-FAK)?
Answer: 5.00 to 6.00

Question: `FC(F)(F)c1cncc(-c2nccc(NCc3ccccc3C(F)(F)F)n2)c1` [Compound 112, N-[2-(Trifluoromethyl)benzyl]-2-[5-(trifluoromethyl)pyridin-3-yl]pyrimidin-4-amine] was tested. Which pIC50 ([1]; Table 3) did it give?
Answer: > 7.00

Question: And the pIC50 ([2]; Table 3, phospho-Y397-FAK)?
Answer: 5.00 to 6.00

Question: With `Fc1ccc(CNc2ccnc(-c3cncc(Cl)c3)n2)c(F)c1` [Compound 114, 2-(5-Chloropyridin-3-yl)-N-(2,4-difluorobenzyl)pyrimidin-4-amine] as the compound, how does the pIC50 ([1]; Table 3) read?
Answer: > 7.00

Question: And the pIC50 ([2]; Table 3, phospho-Y397-FAK)?
Answer: 6.00 to 7.00

Question: `CC(Nc1ccnc(-c2cccnc2N)n1)c1ccccc1C(F)(F)F` (stereo not drawn) [Compound 115, 2-(2-Aminopyridin-3-yl)-N-{1-[2-(trifluoro-methyl)phenyl]ethyl}pyrimidin-4-amine] was tested. Which pIC50 ([1]; Table 3) did it give?
Answer: 6.00 to 7.00

Question: What about the pIC50 ([2]; Table 3, phospho-Y397-FAK) of the same compound?
Answer: < 5.00

Question: What does the source list for `FC(F)(F)c1cc(Cl)ccc1CNc1ccnc(-c2cncc(Cl)c2)n1` [Compound 118, 2-(5-Chloropyridin-3-yl)-N-[4-chloro-2-(trifluoromethyl)benzyl]pyrimidin-4-amine]?
Answer: pIC50 ([1]; Table 3): > 7.00; pIC50 ([2]; Table 3, phospho-Y397-FAK): 5.00 to 6.00

Question: How did the pIC50 ([1]; Table 3) turn out when `Fc1ccc(CNc2ccnc(-c3cncc(Cl)c3)n2)c(C(F)(F)F)c1` [Compound 119, 2-(5-Chloropyridin-3-yl)-N-[4-fluoro-2-(trifluoromethyl)benzyl]pyrimidin-4-amine] was run?
Answer: > 7.00

Question: And the pIC50 ([2]; Table 3, phospho-Y397-FAK)?
Answer: 5.00 to 6.00

Question: Which results are given for `Fc1ccc(CNc2ccnc(-c3cncc(C(F)(F)F)c3)n2)c(C(F)(F)F)c1` [Compound 123, N-[4-Fluoro-2-(trifluoromethyl)benzyl]-2-[5-(trifluoromethyl)pyridin-3-yl]pyrimidin-4-amine]?
Answer: pIC50 ([1]; Table 3): > 7.00; pIC50 ([2]; Table 3, phospho-Y397-FAK): 5.00 to 6.00

Question: How did the pIC50 ([1]; Table 3) turn out when `CC(Nc1ccnc(-c2cncc(Cl)c2)n1)c1ccccc1C(F)(F)F` (stereo not drawn) [Compound 124, 2-(5-Chloropyridin-3-yl)-N-{1-[2-(trifluoromethyl)phenyl]ethyl}pyrimidin-4-amine] was run?
Answer: > 7.00

Question: And the pIC50 ([2]; Table 3, phospho-Y397-FAK)?
Answer: 5.00 to 6.00

Question: `Fc1ccc(CNc2ccnc(-c3cncc(C(F)(F)F)c3)n2)c(F)c1` [Compound 125, N-(2,4-Difluorobenzyl)-2-[5-(trifluoromethyl)pyridin-3-yl]pyrimidin-4-amine] was tested. Which pIC50 ([1]; Table 3) did it give?
Answer: > 7.00

Question: What about the pIC50 ([2]; Table 3, phospho-Y397-FAK) of the same compound?
Answer: 5.00 to 6.00

Question: How did the pIC50 ([1]; Table 3) turn out when `Nc1ncc(Cl)cc1-c1nccc(NCc2ccc(F)cc2F)n1` [Compound 126, 2-(2-Amino-5-chloropyridin-3-yl)-N-(2,4-difluorobenzyl)pyrimidin-4-amine] was run?
Answer: > 7.00

Question: What about the pIC50 ([2]; Table 3, phospho-Y397-FAK) of the same compound?
Answer: 5.00 to 6.00

Question: With `Clc1cncc(-c2nccc(NCc3cccc4c3OCO4)n2)c1` [Compound 127, N-(1,3-Benzodioxol-4-ylmethyl)-2-(5-chloropyridin-3-yl)pyrimidin-4-amine] as the compound, how does the pIC50 ([1]; Table 3) read?
Answer: > 7.00

Question: And the pIC50 ([2]; Table 3, phospho-Y397-FAK)?
Answer: < 5.00

Question: Which results are given for `Nc1ncc(Cl)cc1-c1nccc(NCc2ccccc2C(F)(F)F)n1` [Compound 129, 2-(2-Amino-5-chloropyridin-3-yl)-N-[2-(trifluoromethyl)benzyl]pyrimidin-4-amine]?
Answer: pIC50 ([1]; Table 3): > 7.00; pIC50 ([2]; Table 3, phospho-Y397-FAK): 5.00 to 6.00

Question: How did the pIC50 ([1]; Table 3) turn out when `CC(Nc1ccnc(-c2cncc(C(F)(F)F)c2)n1)c1ccccc1C(F)(F)F` (stereo not drawn) [Compound 130, N-{1-[2-(Trifluoromethyl)phenyl]ethyl}-2-[5-(trifluoromethyl)pyridin-3-yl]pyrimidin-4-amine] was run?
Answer: > 7.00

Question: What about the pIC50 ([2]; Table 3, phospho-Y397-FAK) of the same compound?
Answer: < 5.00
